# Target: human LPA1 receptor (Homo sapiens (Human), UniProt Q92633)
# Test: Beta-arrestin recruitment assay to determine IC50 values for human LPAR1
# Type: cell-based
# Conditions: antagonist mode, Tango EDG2-bla U2OS cells, LPA 18:1 500 nM final
# Summary of the method: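 Tango EDG2-bla U2OS cells: LPA-driven beta-arrestin/TEV protease recruitment releases Gal4-VP16, inducing beta-lactamase reporter read with live-cell substrate. Cells seeded 20 h at 37 °C beforehand. IC50 is antagonist concentration inhibiting 50% of maximal response.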
# Chain of human LPA1 receptor (Q92633 whole entry): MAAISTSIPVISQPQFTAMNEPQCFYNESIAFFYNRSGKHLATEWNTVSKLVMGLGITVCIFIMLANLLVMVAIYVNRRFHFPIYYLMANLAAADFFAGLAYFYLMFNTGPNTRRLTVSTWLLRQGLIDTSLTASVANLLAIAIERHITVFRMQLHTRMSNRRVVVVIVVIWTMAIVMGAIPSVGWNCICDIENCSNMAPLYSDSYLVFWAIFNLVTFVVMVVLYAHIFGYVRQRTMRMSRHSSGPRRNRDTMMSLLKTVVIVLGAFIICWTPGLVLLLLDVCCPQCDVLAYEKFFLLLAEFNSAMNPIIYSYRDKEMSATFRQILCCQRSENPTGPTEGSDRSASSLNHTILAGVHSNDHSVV
row,IC50 [nM],Compound
1,15,"COc1cc(Cl)cnc1NC(=O)C1(c2ccccc2C(C)C)CN(S(N)(=O)=O)C1 [Ex 81-1, N-(5-chloro-3-methoxypyridin-2-yl)-3-(2-isopropylphenyl)-1-sulfamoylazetidine-3-carboxamide]"
2,25,"Cc1ccc(NC(=O)C2(c3ccccc3C(C)C)CN(C(=O)CCCc3nnn[nH]3)C2)c(OC(F)F)n1 [Ex 12-30, 1-(4-(1H-tetrazol-5-yl)butanoyl)-N-(2-(difluoromethoxy)-6-methylpyridin-3-yl)-3-(2-isopropylphenyl)azetidine-3-carboxamide]"
3,106,"Cc1ccc(NC(=O)C2(c3ccccc3C(C)C)CN(C(=O)C3COCCN3)C2)c(OC(F)F)n1 (stereo not shown) [Ex 12-43, N-(2-(difluoromethoxy)-6-methylpyridin-3-yl)-3-(2-isopropylphenyl)-1-(morpholine-3-carbonyl)azetidine-3-carboxamide]"
4,11,"Methyl 4-(3-((5-bromo-3-(difluoromethoxy)pyridin-2-yl)carbamoyl)-3-(2-isopropylphenyl)azetidin-1-yl)-2,2-dimethyl-4-oxobutanoate [Ex 79-2]"
5,53,"CCOC(=O)C1(C(=O)N2CC(C(=O)Nc3ccc(C)nc3OC(F)F)(c3ccccc3C(C)C)C2)CNC1 [Ex 12-113, ethyl 3-(3-((2-(difluoromethoxy)-6-methylpyridin-3-yl)carbamoyl)-3-(2-isopropylphenyl)azetidine-1-carbonyl)azetidine-3-carboxylate]"
6,5,"Cc1ccc(NC(=O)C2(c3ccccc3C(C)C)CN(Cc3ccc(C(=O)O)[nH]3)C2)c(OC(F)F)n1 [Ex 11-44, 5-((3-((2-(difluoromethoxy)-6-methylpyridin-3-yl)carbamoyl)-3-(2-isopropylphenyl)azetidin-1-yl)methyl)-1H-pyrrole-2-carboxylic acid]"
7,8,"Cc1ccc(NC(=O)C2(c3c(F)cccc3C(C)C)CNC2)c(OC(F)F)n1 [Ex 36, N-(2-(difluoromethoxy)-6-methylpyridin-3-yl)-3-(2-fluoro-6-isopropylphenyl)azetidine-3-carboxamide]"
8,18,"COC(=O)/C=C/S(=O)(=O)N1CC(C(=O)Nc2ccc(C)nc2OC(F)F)(c2ccccc2C(C)C)C1 [Ex 13-20, methyl (E)-3-((3-((2-(difluoromethoxy)-6-methylpyridin-3-yl)carbamoyl)-3-(2-isopropylphenyl)azetidin-1-yl)sulfonyl)acrylate]"
9,44,"CNC(=O)C(C)(C)CCN1CC(C(=O)Nc2ccc(C)nc2OC(F)F)(c2ccccc2C(C)C)C1 [Ex 11-92, N-(2-(difluoromethoxy)-6-methylpyridin-3-yl)-1-(3,3-dimethyl-4-(methylamino)-4-oxobutyl)-3-(2-isopropylphenyl)azetidine-3-carboxamide]"
10,46,"Cc1ccc(NC(=O)C2(c3ccccc3C(C)C)CN(CCC3(C(=O)O)CCC3)C2)c(OC(F)F)n1 [Ex 11-73, 1-(2-(3-((2-(difluoromethoxy)-6-methylpyridin-3-yl)carbamoyl)-3-(2-isopropylphenyl)azetidin-1-yl)ethyl)cyclobutane-1-carboxylic acid]"
11,5,"Cc1ccc(NC(=O)C2(c3ccccc3C(C)C)CN(C(=O)OCC3(C(=O)O)CC3)C2)c(OC(F)F)n1 [Ex 14-12, 1-(((3-((2-(difluoromethoxy)-6-methylpyridin-3-yl)carbamoyl)-3-(2-isopropylphenyl)azetidine-1-carbonyl)oxy)methyl)cyclopropane-1-carboxylic acid]"
12,7,"Cc1ccc(NC(=O)C2(c3ccccc3C(C)C)CCN(S(=O)(=O)CCC(=O)O)CC2)c(OC(F)F)n1 [Ex 13-8, 3-((4-((2-(difluoromethoxy)-6-methylpyridin-3-yl)carbamoyl)-4-(2-isopropylphenyl)piperidin-1-yl)sulfonyl)propanoic acid]"
13,14,"Cc1ccc(NC(=O)C2(c3ccccc3C(C)C)CN(C(=O)[C@H](C)CC(=O)O)C2)c(OC(F)F)n1 [Ex 12-90, (R)-4-(3-((2-(difluoromethoxy)-6-methylpyridin-3-yl)carbamoyl)-3-(2-isopropylphenyl)azetidin-1-yl)-3-methyl-4-oxobutanoic acid]"
14,1,"Cc1ccc(NC(=O)C2(c3ccccc3C(C)C)CN(c3cc(F)ccn3)C2)c(OC(F)F)n1 [Ex 18-18, N-(2-(difluoromethoxy)-6-methylpyridin-3-yl)-1-(4-fluoropyridin-2-yl)-3-(2-isopropylphenyl)azetidine-3-carboxamide]"
15,41,"Cc1ccc(NC(=O)C2(c3ccccc3C(C)C)CN(C(=O)NCCC(=O)O)C2)c(OC(F)F)n1 [Ex 17-5, 3-(3-((2-(difluoromethoxy)-6-methylpyridin-3-yl)carbamoyl)-3-(2-isopropylphenyl)azetidine-1-carboxamido)propanoic acid]"
16,866,"COc1cc(Cl)cnc1NC(=O)C1(c2ccccc2C(C)C)CNC1 [Ex 70, N-(5-chloro-3-methoxypyridin-2-yl)-3-(2-isopropylphenyl)azetidine-3-carboxamide]"

row,IC50 [nM],Compound
1,96,"Cc1ccc(NC(=O)C2(c3ccccc3C(C)C)CN(CC3CCC(C(=O)O)CC3)C2)c(OC(F)F)n1 (stereo not shown) [Ex 41, 4-((3-((2-(difluoromethoxy)-6-methylpyridin-3-yl)carbamoyl)-3-(2-isopropylphenyl)azetidin-1-yl)methyl)cyclohexane-1-carboxylic acid]"
2,41,"Cc1ccc(NC(=O)C2(c3ccccc3C(C)C)CN(Cc3ncco3)C2)c(OC(F)F)n1 [Ex 11-47, N-(2-(difluoromethoxy)-6-methylpyridin-3-yl)-3-(2-isopropylphenyl)-1-(oxazol-2-ylmethyl)azetidine-3-carboxamide]"
3,59,"COCCN(CC(=O)N1CCC(C(=O)Nc2ccc(C)nc2OC(F)F)(c2ccccc2C(C)C)CC1)C(=O)OC(C)(C)C [Ex 12-47, tert-butyl (2-(4-((2-(difluoromethoxy)-6-methylpyridin-3-yl)carbamoyl)-4-(2-isopropylphenyl)piperidin-1-yl)-2-oxoethyl)(2-methoxyethyl)carbamate]"
4,457,"COC(=O)C(C)(C)CCN1CC(C(=O)Nc2ncc(Cl)cc2OC(F)F)(c2ccccc2C(C)C)C1 [Ex 78-1, methyl 4-(3-((5-chloro-3-(difluoromethoxy)pyridin-2-yl)carbamoyl)-3-(2-isopropylphenyl)azetidin-1-yl)-2,2-dimethylbutanoate]"
5,10,"Cc1ccc(NC(=O)C2(c3ccccc3C(C)C)CN(S(=O)(=O)CCC(=O)NO)C2)c(OC(F)F)n1 [Ex 13-29, N-(2-(difluoromethoxy)-6-methylpyridin-3-yl)-1-((3-(hydroxyamino)-3-oxopropyl)sulfonyl)-3-(2-isopropylphenyl)azetidine-3-carboxamide]"
6,547,"Cc1ccc(NC(=O)C2(c3ccccc3C(C)C)CN(Cc3cn(CC(=O)O)nn3)C2)c(OC(F)F)n1 [Ex 11-49, 2-(4-((3-((2-(difluoromethoxy)-6-methylpyridin-3-yl)carbamoyl)-3-(2-isopropylphenyl)azetidin-1-yl)methyl)-1H-1,2,3-triazol-1-yl)acetic acid]"
7,7,"Cc1ccc(NC(=O)C2(c3ccccc3C(C)C)CN(C(=O)C(F)(F)CC(=O)O)C2)c(OC(F)F)n1 [Ex 12-115, 4-(3-((2-(difluoromethoxy)-6-methylpyridin-3-yl)carbamoyl)-3-(2-isopropylphenyl)azetidin-1-yl)-3,3-difluoro-4-oxobutanoic acid]"
8,7,"Cc1ccc(NC(=O)C2(c3ccccc3C(C)C)CCN(C(=O)CC3(O)COC3)CC2)c(OC(F)F)n1 [Ex 12-14, N-(2-(difluoromethoxy)-6-methylpyridin-3-yl)-1-(2-(3-hydroxyoxetan-3-yl)acetyl)-4-(2-isopropylphenyl)piperidine-4-carboxamide]"
9,481,"Cc1ccc(NC(=O)C2(c3ccccc3C(C)C)CN(C(=O)[C@H](CO)NC(=O)OC(C)(C)C)C2)c(OC(F)F)n1 [Ex 12-39, tert-butyl (S)-(1-(3-((2-(difluoromethoxy)-6-methylpyridin-3-yl)carbamoyl)-3-(2-isopropylphenyl)azetidin-1-yl)-3-hydroxy-1-oxopropan-2-yl)carbamate]"
10,5,"Cc1ccc(NC(=O)C2(c3ccccc3C3CCCC3)CN(C(=O)CC(C)(C)C(=O)O)C2)c(OC(F)F)n1 [Ex 31-3, 4-(3-(2-cyclopentylphenyl)-3-((2-(difluoromethoxy)-6-methylpyridin-3-yl)carbamoyl)azetidin-1-yl)-2,2-dimethyl-4-oxobutanoic acid]"
11,8,"Cc1ccc(NC(=O)C2(c3ccccc3C(C)C)CN(CC(C)(C)CC(=O)O)C2)c(OC(F)F)n1 [Ex 11-33, 4-(3-((2-(difluoromethoxy)-6-methylpyridin-3-yl)carbamoyl)-3-(2-isopropylphenyl)azetidin-1-yl)-3,3-dimethylbutanoic acid]"
12,11,"Cc1ccc(NC(=O)C2(c3ccccc3C(C)C)CN(c3cnc(C(=O)O)cn3)C2)c(OC(F)F)n1 [Ex 18-9, 5-(3-((2-(difluoromethoxy)-6-methylpyridin-3-yl)carbamoyl)-3-(2-isopropylphenyl)azetidin-1-yl)pyrazine-2-carboxylic acid]"
13,34,"COC(=O)C(C)(C)CC(=O)N1CC(C(=O)Nc2ccc(C)nc2OC(F)F)(c2ccccc2C(C)C)C1 [Ex 12-81, methyl 4-(3-((2-(difluoromethoxy)-6-methylpyridin-3-yl)carbamoyl)-3-(2-isopropylphenyl)azetidin-1-yl)-2,2-dimethyl-4-oxobutanoate]"
14,7,"Cc1ccc(NC(=O)C2(c3ccccc3C(C)C)CN(S(=O)(=O)CCCC(=O)O)C2)c(OC(F)F)n1 [Ex 13-17, 4-((3-((2-(difluoromethoxy)-6-methylpyridin-3-yl)carbamoyl)-3-(2-isopropylphenyl)azetidin-1-yl)sulfonyl)butanoic acid]"
15,10,"COC(=O)c1ccc(N2CC(C(=O)Nc3ccc(C)nc3OC(F)F)(c3ccccc3C(C)C)C2)nn1 [Ex 18-6, methyl 6-(3-((2-(difluoromethoxy)-6-methylpyridin-3-yl)carbamoyl)-3-(2-isopropylphenyl)azetidin-1-yl)pyridazine-3-carboxylate]"
